Results on ten molecules are retold here after PubChem BioAssay (NCI).

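1) Cells in 96-well plates. 2) Compound, 48 h, 5 concentrations. 3) Linear interpolation between surrounding doses. 4) Unreached endpoint = highest concentration. At the GI50, growth is halved. TGI denotes the concentration required for complete inhibition of growth.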

Among the test systems are ACHN renal; SW-620 colon; HOP-92 NSCLC; UACC-62 melanoma; T-47D breast; IGROV1 ovarian; MCF7 breast; SK-MEL-5 melanoma; SK-MEL-2 melanoma; SNB-75 CNS; RPMI-8226 leukemia; EKVX NSCLC; MOLT-4 leukemia.
Common to all, as to assay: NCI tumour cell line growth inhibition, 48 h

For the molecule `COc1cc(/C=C2\CC(C)C/C(=C\c3ccc(O)c(OC)c3)C2=O)ccc1O` (stereo unspecified), the TGI in the test with ACHN renal was 10.2 µM; with SW-620 colon it was 5.41 µM; in the test with HOP-92 NSCLC, 10.4 µM; in the test on UACC-62 melanoma, 4.01 µM; in the test with T-47D breast, 4.5 µM; in the test on IGROV1 ovarian it was 5.88 µM. Besides, the TGI with MCF7 breast is 19.3 µM; in the test with SK-MEL-5 melanoma, 4.52 µM; in the test on SK-MEL-2 melanoma it was 17.8 µM; with SNB-75 CNS, 15 µM; in the test on RPMI-8226 leukemia, greater than 100 µM; in the test on EKVX NSCLC, 28.1 µM. For the same molecule, the TGI in the test with MOLT-4 leukemia is 17.8 µM.

`CC1(C)N([O-])[N+](=O)C1(Br)c1ccccc1` (stereo unspecified): the TGI in the test with ACHN renal, with SW-620 colon, in the test with HOP-92 NSCLC, in the test with UACC-62 melanoma, in the test with T-47D breast and with IGROV1 ovarian was greater than 100 µM throughout. Moreover, the TGI in the test with MCF7 breast, in the test with SK-MEL-5 melanoma, in the test on SK-MEL-2 melanoma, with SNB-75 CNS, in the test with RPMI-8226 leukemia and with EKVX NSCLC was greater than 100 µM in each case. Further, the TGI in the test with MOLT-4 leukemia was greater than 100 µM.

For the molecule `CC1(C)CC2C(/C1=N/O)C1(C)CCCC2(C)C1O` (stereo unspecified), the TGI with ACHN renal, in the test with SW-620 colon, in the test with HOP-92 NSCLC, in the test on UACC-62 melanoma, with T-47D breast and in the test on IGROV1 ovarian was greater than 100 µM each time. Moreover, the TGI with MCF7 breast, with SK-MEL-5 melanoma, with SK-MEL-2 melanoma, in the test on SNB-75 CNS, in the test with RPMI-8226 leukemia and in the test with EKVX NSCLC was greater than 100 µM in each case. This molecule also had a TGI with MOLT-4 leukemia greater than 100 µM.

As for `COc1ccc2oc(=O)c(-c3csc(-c4ccccc4)n3)cc2c1`, the TGI was greater than 100 µM in the test on ACHN renal; greater than 100 µM with SW-620 colon; 56 µM in the test with HOP-92 NSCLC; greater than 100 µM with UACC-62 melanoma; greater than 100 µM with T-47D breast; greater than 100 µM with IGROV1 ovarian. The TGI in the test on MCF7 breast was greater than 100 µM; in the test with SK-MEL-5 melanoma, greater than 100 µM; in the test on SK-MEL-2 melanoma, greater than 100 µM; in the test on SNB-75 CNS, 71.7 µM; in the test on RPMI-8226 leukemia, greater than 100 µM; in the test on EKVX NSCLC it was greater than 100 µM. Also, the TGI in the test on MOLT-4 leukemia was greater than 100 µM.

Regarding `O=c1cc(-c2ccc3ccccc3c2)[nH]c2ncccc12`, the TGI was greater than 100 µM with ACHN renal; greater than 100 µM with SW-620 colon; 75.6 µM in the test on HOP-92 NSCLC; greater than 100 µM in the test with UACC-62 melanoma; greater than 100 µM with T-47D breast; greater than 100 µM in the test on IGROV1 ovarian. In addition, the TGI in the test with MCF7 breast was greater than 100 µM; with SK-MEL-5 melanoma, 16.5 µM; with SK-MEL-2 melanoma it was greater than 100 µM; with SNB-75 CNS, 62.6 µM; with RPMI-8226 leukemia, 60.7 µM; in the test with EKVX NSCLC, greater than 100 µM. This molecule also gave a TGI in the test with MOLT-4 leukemia greater than 100 µM. In addition, the GI50 with SK-MEL-5 melanoma was 3.46 µM.

As to `COc1ccc(C(c2cc(OC)c(OC)c(OC)c2)N2C(=O)CCC2C(=O)O)cc1` (stereo unspecified), the TGI with ACHN renal, in the test with SW-620 colon, in the test with HOP-92 NSCLC, in the test with UACC-62 melanoma, in the test with T-47D breast and in the test on IGROV1 ovarian was greater than 100 µM in each case. Further, the TGI in the test on MCF7 breast, in the test on SK-MEL-5 melanoma, in the test on SK-MEL-2 melanoma, in the test with SNB-75 CNS, in the test with RPMI-8226 leukemia and with EKVX NSCLC was greater than 100 µM each time. In the test on MOLT-4 leukemia, this molecule showed a TGI greater than 100 µM.

Turning to `CC(C)(C)CN1[C@@H]2CCCC[C@H]2N(CC(C)(C)C)P1(=O)C(O)/C=C/c1ccccc1` (stereo partly specified), the TGI in the test on ACHN renal was 93.7 µM; in the test on SW-620 colon it was greater than 100 µM; with HOP-92 NSCLC, 67 µM; in the test with UACC-62 melanoma it was greater than 100 µM; in the test with T-47D breast, greater than 100 µM; in the test with IGROV1 ovarian, greater than 100 µM. In addition, the TGI with MCF7 breast is greater than 100 µM; in the test with SK-MEL-5 melanoma, 38.9 µM; in the test on SK-MEL-2 melanoma, 93.1 µM; in the test with SNB-75 CNS, greater than 100 µM; in the test with RPMI-8226 leukemia, 56.1 µM; with EKVX NSCLC it was greater than 100 µM. Moreover, in the test with MOLT-4 leukemia, the TGI was greater than 100 µM.

Regarding `CC(C(=O)O)C1Nc2ccccc2NC1=O` (stereo unspecified), the TGI in the test on ACHN renal, in the test on SW-620 colon, in the test with HOP-92 NSCLC, with UACC-62 melanoma, with T-47D breast and in the test on IGROV1 ovarian was greater than 100 µM throughout. For the same molecule, the TGI in the test on MCF7 breast, in the test with SK-MEL-5 melanoma, with SK-MEL-2 melanoma, in the test on SNB-75 CNS, with RPMI-8226 leukemia and in the test with EKVX NSCLC was greater than 100 µM throughout. The same molecule displayed a TGI in the test on MOLT-4 leukemia greater than 100 µM.

Turning to `[O-]/[N+](=N/c1ncc(-c2ccccc2)cn1)c1ncc(-c2ccccc2)cn1`, the TGI in the test on ACHN renal, with SW-620 colon, in the test on HOP-92 NSCLC, in the test with UACC-62 melanoma, with T-47D breast and in the test on IGROV1 ovarian was greater than 100 µM throughout. Also, the TGI in the test on MCF7 breast, in the test on SK-MEL-5 melanoma, in the test with SK-MEL-2 melanoma, in the test with SNB-75 CNS, with RPMI-8226 leukemia and with EKVX NSCLC was greater than 100 µM in each case. This molecule also showed a TGI with MOLT-4 leukemia greater than 100 µM.

On to `CCOC(=O)CON=c1c2ccccc2ccc2ccccc12`, for which the TGI with ACHN renal, in the test with SW-620 colon, in the test with HOP-92 NSCLC, in the test on UACC-62 melanoma, with T-47D breast and with IGROV1 ovarian was greater than 100 µM in each case. In addition, the TGI in the test on MCF7 breast, in the test with SK-MEL-5 melanoma, with SK-MEL-2 melanoma, in the test with SNB-75 CNS, with RPMI-8226 leukemia and with EKVX NSCLC was greater than 100 µM each time. The molecule also came in with a TGI in the test with MOLT-4 leukemia greater than 100 µM.
